The results in this text go back to ChEMBL document CHEMBL4373723 (J Med Chem, 2019).

Series [1] is filed under the species Homo sapiens. Description: Modulation of Frizzled in human Caco2 cells assessed as protection against TcdB-induced cell rounding incubated for 24 hrs by phalloidin conjugated AlexaFluor488 dye based fluorescence microscopy.
For series [2], the species on record is Homo sapiens. Briefly: Modulation of Frizzled in human Caco2 cells assessed as protection against 4 ng/ml TcdB-induced cell rounding at 50 uM incubated for 24 hrs by phalloidin conjugated AlexaFluor488 dye based fluorescence microscopy relative to control.
Series [3] can be described thus: Stability in cell culture medium containing 10% fetal bovine serum at 200 uM at 37 degC measured over 24 hrs by LC-MS analysis. Format: ADME, cell-free, Bos taurus. The settings on record: cattle.
Series [4] can be described thus: Stability in presence of TCEP assessed as disulfide reduction at 20 uM measured over 40 mins at 37 degC by LC-MS analysis. Type of series: physicochemical.
Series [5] concerns the target T1, Frizzled-7 (Homo sapiens, UniProt O75084). Description: Binding affinity to recombinant human Frizzled-7 (Gln33 to Leu185 residues)/human IgG1 chimeric protein expressed in CHO cells assessed as reduction in interaction of TcdB with FZD7 incubated for 1 hr by competition ELISA. Type of series: cell-based.
The species entered for series [6] is Homo sapiens. Briefly: Modulation of Frizzled in human Caco2 cells assessed as protection against 0.1 to 1 ng/ml TcdB-induced cell rounding incubated for 24 hrs by phalloidin conjugated AlexaFluor488 dye based fluorescence microscopy relative to control.
For series [7] the following is noted: 40 min, 20 µM.
Series [8] is described as follows: Binding affinity to recombinant human/mouse Frizzled-2 (Gln29 to Leu168 residues)/human IgG1 chimeric protein expressed in mouse NS0 cells assessed as reduction in interaction of TcdB with FZD7 incubated for 1 hr by competition ELISA. Type of series: cell-based. Background: ELISA stands for enzyme-linked immunosorbent assay.
The target of series [9] is T1, Frizzled-7. The conditions noted are these: CHO.
Description: Binding affinity to recombinant human Frizzled-7 (Gln33 to Leu185 residues)/human IgG1 chimeric protein expressed in CHO cells assessed as association rate constant by SPR assay
The conditions of series [10]: mouse, serum, 24 h, 200 µM.
For series [11] the following is noted: 40 min, 20 µM. This is another data set of the same source.
Series [12] concerns the target T1, Frizzled-7. Description: biochemical. Type of series: cell-based, CHO. The conditions noted are these: read-out: Kd.
In series [13] the target is T1, Frizzled-7. Type of series: cell-based. The conditions noted are these: cho.
Series [14] addresses T1, Frizzled-7. Briefly: Inhibition of Frizzled-7 in HEK293 cells expressing Wnt assessed as reduction in Wnt signaling by firefly luciferase reporter gene assay. Format: cell-based. For orientation: A reporter such as luciferase makes a cellular process visible.
Series [15] is filed under the species Cricetulus griseus. Description: Modulation of Frizzled in CHOK1 cells assessed as protection against 5 ng/ml TcdB-induced cell rounding at 50 uM incubated for 24 hrs by phalloidin conjugated AlexaFluor488 dye based fluorescence microscopy relative to control.
For series [16], the species on record is Homo sapiens. Briefly: Modulation of Frizzled in human Caco2 cells assessed as protection against 0.25 to 0.5 ng/ml TcdB-induced cell rounding at 50 uM incubated for 24 hrs by phalloidin conjugated AlexaFluor488 dye based fluorescence microscopy relative to control.

The source made the active and inactive calls. The calls are words filed in the database; no cut-off is given here.

A word on the IC50: it is the concentration at which inhibition is half-maximal. With `CC[C@H](C)[C@H](NC(=O)[C@H](Cc1cnc[nH]1)NC(=O)[C@H](CSSC[C@H](NC(=O)[C@H](Cc1c[nH]c2ccccc12)NC(=O)[C@H](CC(C)C)NC(=O)[C@H](CCC(=O)O)NC(=O)[C@H](CC(C)C)NC(=O)[C@H](CC(=O)O)NC(=O)[C@H](CC(=O)O)NC(=O)[C@@H](NC(C)=O)[C@H](C)O)C(=O)N[C@@H](Cc1cnc[nH]1)C(=O)N[C@H](C(=O)N[C@@H](CCSC)C(=O)N[C@@H](Cc1ccc(O)cc1)C(N)=O)[C@@H](C)CC)NC(=O)[C@H](Cc1c[nH]c2ccccc12)NC(=O)[C@H](CC(C)C)NC(=O)[C@H](CCC(=O)O)NC(=O)[C@H](CC(C)C)NC(=O)[C@H](CC(=O)O)NC(=O)[C@H](CC(=O)O)NC(=O)[C@@H](NC(C)=O)[C@H](C)O)C(=O)N[C@@H](CCSC)C(=O)N[C@@H](Cc1ccc(O)cc1)C(N)=O`, the inhibition result in [1], in [5] and in series [8] was “Dose-dependent effect” throughout. In addition, in series [2], the result was inactive. Besides, the Stability result in series [3] is “Stable”; in series [4] it was “Unstable”; in series [7] it was “Unstable”; in series [10] it was “Stable”; in series [11], “Unstable”. Besides, the Activity in series [6] lay within 34 to 69%. The Ka in [9] was determined as 166 ×10⁵ /M/s. Further, the Kd amounted to 0.039 nM in [12] and 0.64 ×10⁻³ /s in series [13]. The IC50 in [14] came out at 9.2 nM. Further, the outcome in series [15] and in [16] was Active.
